Measured values from PubChem BioAssay (NCI).
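Cells were grown in 96-well plates and exposed to each compound for 48 hours at five concentrations; endpoints were interpolated linearly between bracketing concentrations, or set to the highest concentration if not reached. TGI is the concentration that stops growth completely.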

Key:
Assay in all cases: DTP human tumour cell line panel, 48 h
A498 renal = test system: A498 renal
A549 NSCLC = test system: A549 NSCLC
BT-549 breast = test system: BT-549 breast
COLO 205 colon = test system: COLO 205 colon
EKVX NSCLC = test system: EKVX NSCLC
IGROV1 ovarian = test system: IGROV1 ovarian
K-562 leukemia = test system: K-562 leukemia
KM12 colon = test system: KM12 colon
M14 melanoma = test system: M14 melanoma
MCF7 breast = test system: MCF7 breast
MDA-MB-435 = test system: MDA-MB-435
MOLT-4 leukemia = test system: MOLT-4 leukemia
NCI/ADR-RES ovarian = test system: NCI/ADR-RES ovarian
OVCAR-8 ovarian = test system: OVCAR-8 ovarian
SF-268 CNS = test system: SF-268 CNS
SNB-19 CNS = test system: SNB-19 CNS
UACC-257 melanoma = test system: UACC-257 melanoma

Row | Structure (SMILES) | TGI (A498 renal) [µM] | TGI (A549 NSCLC) [µM] | TGI (BT-549 breast) [µM] | TGI (COLO 205 colon) [µM] | TGI (EKVX NSCLC) [µM] | TGI (IGROV1 ovarian) [µM] | TGI (K-562 leukemia) [µM] | TGI (KM12 colon) [µM] | TGI (M14 melanoma) [µM] | TGI (MCF7 breast) [µM] | TGI (MDA-MB-435) [µM] | TGI (MOLT-4 leukemia) [µM] | TGI (NCI/ADR-RES ovarian) [µM] | TGI (OVCAR-8 ovarian) [µM] | TGI (SF-268 CNS) [µM] | TGI (SNB-19 CNS) [µM] | TGI (UACC-257 melanoma) [µM]
1 | CC(C)C(OC(=O)c1ccc(NCC2=CC(=O)C=CC2=O)cc1)C(C)C | 31.9 | > 73.1 | 15.1 | 9.84 | 29.1 | 5.14 | 12.6 | 30.5 | 19.7 | 22.5 | 17.9 | 7.12 | 19.8 | 12.9 | 31.9 | 53.5 | 25.9
2 | O=C1CCc2ccc(O)c(c2)Oc2ccc(cc2)C(Sc2ccccc2)CCO1 (stereo unspecified) | 31.8 | 59 | 28.7 | 33.1 | 28.5 | 27.6 | 40 | 29.5 | 32.1 | 43.8 | 41.9 | > 100 | 31.4 | 37.3 | 42.4 | 39.8 | 32.6
3 | O=C(NNC(=S)NC1CCCCC1)C12CC3CC(CC(C3)C1)C2 | > 100 | > 100 | > 100 | > 100 |  | > 100 | > 100 | > 100 | > 100 | > 100 | > 100 | > 100 | > 100 | > 100 | > 100 | > 100 | > 100
4 | CC(C)=CCCC(C)CCOS(=O)C(F)(F)F (stereo unspecified) | 63.7 | 72.1 | 77.8 | 20.2 | 30.2 | 74.6 | > 100 | > 100 | 6.59 | > 100 | 37.1 | 24.2 | 30.4 | > 100 | 44.7 | 78 | 52.9
5 | C=CCOC(=O)C1=C(C)NC2=N[C@H](CCCCCCCCC)C[C@@H]3CCC1N23 (stereo partly specified) |  | > 100 | 37.6 | 50.9 | 53.1 | 49.5 | > 100 | > 100 | 37.6 | 36.5 | 44.5 | > 100 | 56 | > 100 | 39.9 | 42 | 37.1
6 | O=[N+]([O-])c1ccc(-n2nc3ccc4c(no[n+]4[O-])c3n2)cc1 |  | > 100 | > 100 | > 100 | > 100 | > 100 | > 100 | > 100 | > 100 | > 100 | > 100 | > 100 | > 100 | > 100 | > 100 | > 100 | > 100
7 | O=C1/C(=C/c2ccccc2[N+](=O)[O-])N=C(c2ccccc2)N1c1nc2ccccc2s1 | 72.1 | > 100 | 49.4 |  | > 100 | 33.7 | 44.7 | 43.5 | > 100 | 90.4 | 54.1 | 34.7 | 39.5 | 39.7 | 60.4 | > 100 | > 100
8 | CC(=O)NCC1OC2COC(c3ccccc3)OC2C(NC(=O)c2ccccc2)C1OC(=O)c1ccccc1 (stereo unspecified) | > 100 | > 100 | > 100 | > 100 | > 100 |  | > 100 | > 100 | > 100 | > 100 | > 100 | > 100 | > 100 | > 100 | > 100 | > 100 | > 100
9 | CSc1ccc(Nc2cc(=O)[nH]c(=O)[nH]2)cc1 | > 100 | > 100 | > 100 | > 100 |  |  | > 100 |  | > 100 | > 100 | > 100 | > 100 | > 100 | > 100 | > 100 | > 100 | > 100
10 | CCN(CC)CCN(C)c1ccc(CO)c2c1C(=O)c1ccccc1S2=O (stereo unspecified) | 23.4 | 25.6 | 26.7 | 21.6 | 13.6 | 32.8 | > 20.3 | 4.55 | 4.11 | > 34.5 | 3.65 |  | 3.48 | 3.5 | 35.9 | 26.9 | 3.55
11 | COC(=O)/C=C1/OC(c2ccccc2)=C(C)C1=O | 32.8 |  | 8.45 | 31.3 | 32 | 28.4 | 15 | 27.1 | 24.4 | 16.6 | 27.5 | > 100 | 65.5 | 81.6 | 35.5 | 30.5 | 
12 | CN(C)c1c(C2OC(CO)C(O)C2O)c(=O)c1=O (stereo unspecified) | > 100 | > 100 | > 100 |  | > 100 | > 100 | > 100 | > 100 | > 100 | > 100 | > 100 | > 100 | > 100 | > 100 | > 100 | > 100 | > 100
13 | N[C@@H]1CCN(c2c(F)cc3c(=O)c(C(=O)O)cn4c3c2Oc2cc3c(ccc5ccccc53)cc2-4)C1 | > 44.8 | > 100 | > 100 | > 100 |  | > 100 | > 23.3 | > 100 | > 100 | > 100 | > 100 |  | > 100 | 18.1 |  | > 100 | 
14 | COc1cccc(/C=C2\S/C(=N/Nc3nc(C)c(C)s3)NC2=O)c1O | > 100 | > 100 | > 100 | > 100 | > 100 | > 100 |  | > 100 | > 100 | > 100 | > 100 | > 100 | > 100 | > 100 | > 100 | > 100 | > 100
15 | C=C1C(=O)O[C@H]2C1C[C@@H](OC(C)=O)/C(C)=C/CC[C@@]1(C)O[C@H]21 (stereo partly specified) |  | > 100 | 19 | 14.2 | 35.2 | 21.2 | 39.5 | 44.2 | 16.1 | 23.4 | 87.7 | 9.7 | 32.3 | 32.5 |  | 78 | 19.6
